# Measurements reported in patent publication US10752591B2, “18-20 member bi-polycyclic compounds” (Haro Pharmaceutical Inc., priority 2014, dated 2020).
# Legend:
# [1] = target: purified recombinant human HDAC-1 (Homo sapiens, UniProt Q13547); test: HDAC-1 enzymatic inhibition (AMC fluorogenic peptide deacetylation); format: biochemical; conditions: up to
# Experimental: (§1) The effect of compounds on the enzymatic activity of purified recombinant human HDAC-1, -2, -3, -6, and -8 activity and of purified rat liver HDAC was examined by measuring the deacetylation of synthetic peptides in various preparations of HDACs. HDAC assays were performed using a two-step enzymatic reaction where enzyme activity is correlated to the release of […] (AMC). AMC fluorescence is measured in a fluorescent plate reading using λex380 nm and λen440 nm.
# (§2) The reaction was allowed to proceed for 40 min at 37° C., after which developer solution (0.5% trypsin, 10 μM trichostatin A (TSA)) was added to obtain a final concentration of 0.1% trypsin, 2 μM TSA. After 30 minutes at room temperature, the amount of free fluorogenic AMC was measured as described above.
# [2] = system: RXR; test: RXR-mediated transcription, RXRE luciferase reporter in MCF7 cells; format: cell-based
# From the text: (§3) The effect of various compounds of the invention on RAR-mediated transcription in MCF7 breast cancer cells was examined by measuring their effect on the transcription of a luciferase reporter gene under the control of a TK promoter placed downstream of a RAR response element. In addition, the effect of the compounds on the closely related RXR-mediated transcription was examined by measuring their effect on the transcription of a luciferase reporter gene under the control of a TK promoter placed downstream of a RXR response element.
# (§4) Typically, 10,000 cells were plated in 96 wells plates in phenol red-free RPMI medium supplemented with 10% charcoal-stripped Fetal Bovine Serum. After 24 hours, cells were transfected with 0.1 μg of luciferase reporter plasmid and 0.01 μg of a reporter plasmid expressing renilla luciferase (RLuc) gene under the control of a SV40 promoter, using Fugene 6 transfection reagent (0.5 μl/well Promega Corporation). Cells were treated in triplicate with compounds or vehicle (DMSO) for 24 hours. Luciferase and renilla luciferase activities were measured using Dual-Glo reagent (Promega Corporation). Luciferase activity was normalized in each well for renilla activity.
# [3] = system: purified rat liver HDAC; test: purified rat liver HDAC inhibition; format: biochemical; conditions: relative to compound 17
# Experimental: as §1, §2
# [4] = system: IMR-32 neuroblastoma cells; test: cytotoxicity, cell survival (CellTiterGlo) in IMR-32; format: cell-based; conditions: relative to compounds 17 and 8
# Experimental: (§5) The cytotoxicity of compounds was examined and directly compared to compound 17, by measuring cell survival of clonal tumor cell lines IMR-32, BE2C (neuroblastoma), as well as MDA-MB-231, BT20, HCC-38 (Basal) and MCF7 (luminal) breast cancer cells (ATCC). Cells were cultured in phenol red-free RPMI medium supplemented with 10% FBS and 1 mM Ala-Glu. Typically, 10,000-20,000 cells/well were plated in a 96 well plate (Costar 3197). Cells were exposed to compounds or vehicle (1% DMSO final). Cells were maintained in the presence of compound for four or five days. Media and compounds were renewed every 48 hours. Cell survival was measured using the luminescence CellTiterGlo kit (Promega Corporation) and expressed as relative light unit as fold over DMSO.
# [5] = target: T1, purified recombinant human HDAC-8 (Homo sapiens, UniProt Q9BY41); test: HDAC-8 enzymatic inhibition (Boc-Lys(Tfa)-AMC / HDAC-Glo I/II); format: biochemical; conditions: relative to compound 17
# T1 construct: purchased Cayman Chem 10009465 (AMC assay (so in the source)); 19380 (HDAC-Glo assay)
# T1 sequence (Q9BY41 1-377): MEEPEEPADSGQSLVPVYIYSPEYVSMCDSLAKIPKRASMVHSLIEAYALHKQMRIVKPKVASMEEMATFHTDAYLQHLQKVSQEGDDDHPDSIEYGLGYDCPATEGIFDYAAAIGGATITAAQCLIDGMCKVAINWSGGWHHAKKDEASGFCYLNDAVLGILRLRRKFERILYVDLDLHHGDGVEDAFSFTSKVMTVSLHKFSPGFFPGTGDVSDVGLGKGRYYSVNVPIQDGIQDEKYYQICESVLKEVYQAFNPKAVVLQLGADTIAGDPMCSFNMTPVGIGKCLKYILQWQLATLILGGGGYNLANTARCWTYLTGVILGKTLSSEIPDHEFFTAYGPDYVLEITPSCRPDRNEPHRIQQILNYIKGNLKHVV
# Experimental: as §1
# HDAC-8, HDAC-9, HDAC-10 and HDAC-11 were assayed using HDAC-Glo™ I/II Kit (Promega Corporation G6421) in a total volume of 110 μl following the manufacturer's instructions.
# as §2
# [6] = system: RAR; test: RAR-mediated transcription, RARE-tk luciferase reporter in MCF7 cells; format: cell-based
# From the text: as §3, §4
# [7] = system: C2Cl2 cells; test: Q-RT PCR of myofiber-degradation associated genes in long term C2Cl2 cultures; format: cell-based; conditions: day 10, normalized for RPLP0
# Experimental: Quantitative RT-PCR was performed on RNA prepared from cell treated as in Example 9. At day 10 of the experiment, cells were rinsed in HBSS (without calcium or magnesium) and RNA was prepared using FastLane Cell cDNA Kit (Qiagen). Quantitative PCR was performed using Eppendorf and SYBR amplification mix (Sigma-Aldrich) using the gene specific primer combination given in Table 3. Data were normalized for ribosomal housekeeping gene RPLP0
# [8] = system: C2Cl2 cells; test: myoblast fusion in long term C2Cl2 cultures (MHC immunocytochemistry); format: cell-based; conditions: for fusion of single cells into multinucleated C2Cl2 myotubes: long-term culture, suboptimal RPMI media with 2% horse serum
# Experimental: The effect of compounds on myoblast fusion was examined in C2Cl2 cells maintained in RPMI media supplemented with 2% horse serum. C2Cl2 myoblastic cells where purchased from the American Type Culture Collection (ATCC) and maintained undifferentiated in RPMI media (Corning) supplemented with 2 mM L-Alanine-L-Glutamine (ATCC) and 1 mM pyruvate (Corning). Undifferentiated cells where maintained below 70% confluence. For long term cultures and compound treatment, cells where plated at high density CellBIND Culture Dishes (corning 3294, 3296, 3337) and in RPMI supplemented with 2% Horse Serum (Gibco) and 2 mM L-Alanine-L-Glutamine (ATCC) and 1 mM pyruvate (Corning). Compounds were dissolved in DMSO at 1000 time the final concentration and diluted 1-in-1000 in the media covering the cells. Media and compounds were changed daily. For immunocytochemistry, cells were fixed in 2% PFA in HBSS for 10 minutes and left in HBSS at 4° under humidified atmosphere and processed for immunocytochemistry. For myosin heavy chain detection (MHC), cells were first incubated in 100 ul-1 ml 0.15 M Glycine in DPBS for 10 minutes, rinse with DPBS. 100 ul-1 ml 0.5% Triton-X in DPBS was added for 10 minutes, rinsed with DPBS, and followed by incubation with 100 ul blocking agent (10% goat serum in DPBS) for 30 min at room temperature. MF20 primary antibody in 10% goat serum in DPBS was added at 1/60 dilution for 30 min at room temperature and rinsed three times with 100 ul DPBS. IgG2b goat anti mouse secondary antibody (Jackson Immuno-Research) was added at 1:1000 in 10% goat serum in DPBS for exactly 30 min at room temperature then rinsed 3 times with 100 ul DPBS. A final rinse in H2O was performed and cells were covered with two drops of Elvanol and cover gently with cover slip and allowed to dry in the dark for 24-48 hours.
# [9] = mouse pharmacokinetics; format: in vivo; conditions: mice
# Experimental: Mouse pharmacokinetics studies were conducted in female athymic nude or male C57/B6 mice (n=3). Due to its very poor aqueous solubility, compound 17 was formulated in 66% PEG-400/33% H2O-1% Tween-80. In contrast compound 13 was formulated in 66% PEG-400/33% H2O. Compounds were administered PO (30 mg/kg) or IV (5 mg/kg), and plasma concentrations were measured by UV/HPLC.
# [10] = system: C2Cl2 myoblasts; test: myotube fusion and degeneration in differentiated C2Cl2 cells left in exhausted media; format: cell-based; conditions: 200 nM pre-treatment
# Experimental: C2Cl2 myoblasts were seeded at 100,000 in 30 mm plate in growth medium (Phenol red-free RMPI containing 10% FBS, Sodium pyruvate and Ala-Glu), and “pre-treated” with DMSO or 200 nM of compounds 13 or 17. At confluence cells were shifted to differentiation media (high glucose DMEM, +0.2% HS+1× Insulin/Transferrin/Selenium (Life Tech 41400-045)+Glutamine, without Pyruvate). Fully differentiated C2Cl2-derived myotubes were left in culture without media renewal for 8 days followed by media renewal and microscopic examination.
# [11] = aqueous solubility; format: physicochemical
# [12] = system: BE-2C neuroblastoma cells; test: cytotoxicity, cell survival (CellTiterGlo) in BE-2C; format: cell-based; conditions: BE-2C cells
# Experimental: as §5
# [13] = system: MDA-MB-231 breast cancer cells; test: cytotoxicity, cell survival (CellTiterGlo) in MDA-MB-231; format: cell-based; conditions: MDA-MB-231 cells
# Experimental: as §5
# [14] = system: Lys40 acetylated alpha tubulin; test: intracellular acetylation of alpha-tubulin in BE-2C cells; format: cell-based; conditions: 16 hours
# Experimental: The effect of certain compounds on intracellular acetylation of target proteins was tested in high risk neuroblastoma cells, BE-2C and IMR-32 cells.
# BE-2C cells were grown to confluence in phenol-red-free RPMI media supplemented with 10% FBS and 2.5 mM Ala-Glu. […] Total and Lys 40 acetylated alpha tubulin were detected using specific antibodies.
# Beta actin, total and Lys382 acetylated p53, and Lys40 acetylated alpha, and total tubulin were detected using antibodies (Cell Signaling #8557, #2524 #2525, #12152 and #2144 respectively) using manufacturer recommended conditions.
# [15] = mouse, plasma, PO (30 mg/kg) or IV (5 mg/kg), route per parameter not stated
# Chain of purified recombinant human HDAC-1 (Q13547 whole entry): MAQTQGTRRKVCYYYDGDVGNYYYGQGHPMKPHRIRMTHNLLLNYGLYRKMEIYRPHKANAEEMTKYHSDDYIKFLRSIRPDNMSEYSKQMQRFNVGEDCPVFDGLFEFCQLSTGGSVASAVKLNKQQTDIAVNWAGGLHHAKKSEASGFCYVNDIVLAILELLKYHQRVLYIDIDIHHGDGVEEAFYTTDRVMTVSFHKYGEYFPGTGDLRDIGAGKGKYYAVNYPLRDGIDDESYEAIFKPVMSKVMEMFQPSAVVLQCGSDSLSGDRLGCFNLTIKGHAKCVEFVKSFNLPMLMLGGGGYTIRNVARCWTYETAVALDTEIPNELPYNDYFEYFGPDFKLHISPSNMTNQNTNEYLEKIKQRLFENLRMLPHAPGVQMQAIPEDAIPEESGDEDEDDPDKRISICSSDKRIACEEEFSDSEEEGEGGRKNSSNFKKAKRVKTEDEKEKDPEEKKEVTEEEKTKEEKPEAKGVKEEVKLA
compound,measurement,setting,value
CC1(C)CCC(C)(C)c2cc(-c3c[nH]c4ccc(C(=O)NO)cc34)ccc21 [Compound 5],maximal inhibition of HDAC-1 activity,[1],~50%
same,transcriptional activation of RXR / RXRE-promoter,[2],none
same,times more potent than compound 17 in inhibition of purified rat hepatic HDAC,[3],six
same,fold more potent than compounds 17 and 8 in killing IMR-32 cells,[4],ten
same,times/fold more potent than compound 17 in HDAC-8 inhibition,[5],over 200
CC1(C)CCC(C)(C)c2cc(-c3ccc4nc(C(=O)NO)ccc4c3)ccc21 [Compound 8],RARE-dependent luciferase expression,[6],activated
same,transcriptional activation of RXR / RXRE-promoter,[2],none
same,times more potent than compound 17 in inhibition of purified rat hepatic HDAC,[3],at least three
CC1(C)CCC(C)(C)c2cc(-c3ccc4cc(C(=O)NO)ccc4c3)ccc21 [Compound 17],expression of Atrogin,[7],downregulates
same,expression of myogenin,[7],downregulates
same,transcriptional activation of RXR / RXRE-promoter,[2],none
same,myotubes' length and diameter versus DMSO,[8]; 300 nM,longer and larger
same,average nuclei per cell of polynucleated myotubes,"[8]; 300 nM, 10 days",5-10 nuclei per cell
same,fusion of single cells into multinucleated C2Cl2 myotubes,[8],enhances the fusion
same,F,[9]; PO (30 mg/kg) and IV (5 mg/kg),19.7%
same,AUC(0-inf),[9]; [15],28.7 µM·h
same,Cmax,[9]; [15],2080 nM
same,clearance,"[9]; mouse, plasma, PO (30 mg/kg) or IV (5 mg/kg), route per parameter not stated, read-out: CLp",10.2 mL/min/kg
same,MRT,"[9]; mouse, plasma, PO (30 mg/kg) or IV (5 mg/kg), route per parameter not stated, read-out: MRT",7.1 h
same,Tmax,"[9]; mouse, plasma, PO (30 mg/kg) or IV (5 mg/kg), route per parameter not stated, read-out: Tmax",4.3 h
same,Vd,"[9]; mouse, plasma, PO (30 mg/kg) or IV (5 mg/kg), route per parameter not stated, read-out: Vd,ss",4.6 L/kg
same,cellular fusion after 72 hours differentiation versus DMSO,[10],extensive cellular fusion
same,myotube structural atrophy in exhausted media for over 8 days,[10],very little structural alteration
same,aqueous solubility,[11],very poor
CC1(C)CCC(C)(C)c2cc(-c3c[nH]c4cc(C(=O)NO)ccc34)ccc21 [Compound 18],RARE-dependent luciferase expression,[6],activated
same,maximal inhibition of HDAC-1 activity,[1],~50%
same,"cytotoxic potency compared with compound 17, SAHA, Ricolinistat",[12],"more potent than compound 17, SAHA or Ricolinistat"
same,transcriptional activation of RXR / RXRE-promoter,[2],none
same,"cytotoxic potency compared with compound 17, SAHA, Ricolinistat",[13],"more potent than compound 17, SAHA or Ricolinistat"
CC1(C)CCC(C)(C)c2cc(-c3ccc4cc(C(=O)NO)[nH]c4c3)ccc21 [Compound 19],RARE-dependent luciferase expression,[6],activated
same,transcriptional activation of RXR / RXRE-promoter,[2],none
"CC1(C)CCC(C)(C)c2cc(-c3ccc4cc(C(=O)NO)cnc4c3)ccc21 [Compound 20, N-hydroxy-7-(5,5,8,8-tetramethyl-5,6,7,8-tetrahydronaphthalen-2-yl)quinoline-3-carboxamide]",RARE-dependent luciferase expression,[6],activated
same,transcriptional activation of RXR / RXRE-promoter,[2],none
"CC1(C)CCC(C)(C)c2cc(-c3ccc4ccc(C(=O)NO)cc4c3)ccc21 [Compound 21, N-hydroxy-5′,5′,8′,8′,-tetramethyl-5′,6′,7′,8′-tetrahydro-[2,2′-binaphthalene]-7-carboxamide]",transcriptional activation of RXR / RXRE-promoter,[2],none
"C/C(=C\c1ccc(C(=O)NO)cc1)c1ccc2c(c1)C(C)(C)CCC2(C)C [Compound B, (E)-N-hydroxy-4-(2-(5,5,8,8-tetramethyl-5,6,7,8-tetrahydronaphthalen-2-yl)prop-1-en-1-yl)benzamide]",fusion of single cells into multinucleated C2Cl2 myotubes,[8],enhances the fusion
O=C(CCCCCCNC(=O)c1cnc(N(c2ccccc2)c2ccccc2)nc1)NO [Ricolinostat],Lysin (K) 40 alpha-Tubulin acetylation,[14]; 2 uM,pronounced Lysin (K) 40 alpha-Tubulin acetylation
"O=C(CCCCCCC(=O)Nc1ccccc1)NO [SAHA, suberoylanilide hydroxamic acid]",Lysin (K) 40 alpha-Tubulin acetylation,[14]; 2 uM,pronounced Lysin (K) 40 alpha-Tubulin acetylation
"CC(/C=C/C(=O)NO)=C\[C@@H](C)C(=O)c1ccc(N(C)C)cc1 [TSA, trichostatin A]",Lysin (K) 40 alpha-Tubulin acetylation,[14]; 1 uM,pronounced Lysin (K) 40 alpha-Tubulin acetylation
